# Results taken from patent US20230085307A1, “PYRIDAZINONE COMPOUND AND HERBICIDE” (NISSAN CHEMICAL CORPORATION, priority 2019, published 2023).
# Key:
# chickweed [1] = experiment: Test Example 5: herbicidal effect by foliage application, plastic box (Table 20, symbol P); format: in vivo, common chickweed (Stellaria media); settings: foliage application, 320 g/ha, evaluated three weeks after application
# Outline: (§1)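 Foliar spray test: emulsion formulation diluted in water to a set application rate, sprayed onto 14-day-old plants raised in diluvial soil at 25° C to 30° C under glass. Both herbicidal effect and crop effect rated visually three weeks later.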
# late watergrass = experiment: Test Example 1: herbicidal activity, application before weed generation under submerged conditions (Table 16, symbol A); format: in vivo, late watergrass (Echinochloa oryzicola); settings: 320 g/ha applied herbicide
# Outline: (§2)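 Submerged Wagner pots (alluvial soil, 4 cm water) sown with weed seeds and planted with 2.5-leaf rice seedlings; emulsifiable concentrate diluted in water applied to water surface on sowing day. Held in greenhouse at 25-30 °C; injury scored 0-5 by herbicidal rate after three weeks.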
# Italian ryegrass [2] = experiment: Test Example 4: herbicidal effect by soil treatment (Table 19, symbol K); format: in vivo, Italian ryegrass (Lolium multiflorum); settings: amount of applied herbicide 320 g/ha
# Outline: (§3)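 Step 1: sow seeds in sterilized diluvial soil, cover ~1.5 cm. Step 2: spray diluted emulsion onto soil surface at predetermined rate. Step 3: greenhouse, 25–30° C, three weeks. Step 4: grade effect on each plant by earlier criteria.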
# false cleavers [3] = experiment: Test Example 5: herbicidal effect by foliage application, plastic box (Table 20, symbol Q); format: in vivo, false cleavers (Galium spurium); settings: foliage application, 320 g/ha, evaluated three weeks after application
# Outline: as §1
# wild oat [4] = experiment: Test Example 4: herbicidal effect by soil treatment (Table 19, symbol I); format: in vivo, wild oat (Avena fatua); settings: amount of applied herbicide 320 g/ha
# Outline: as §3
# Japanese bulrush = experiment: Test Example 1: herbicidal activity, application before weed generation under submerged conditions (Table 16, symbol B); format: in vivo, Japanese bulrush (Schoenoplectus juncoides); settings: 320 g/ha applied herbicide
# Outline: as §2
# false cleavers [5] = experiment: Test Example 4: herbicidal effect by soil treatment (Table 19, symbol Q); format: in vivo, false cleavers (Galium spurium); settings: amount of applied herbicide 320 g/ha
# Outline: as §3
# velvetleaf [6] = experiment: Test Example 4: herbicidal effect by soil treatment (Table 19, symbol M); format: in vivo, velvetleaf (Abutilon theophrasti); settings: amount of applied herbicide 320 g/ha
# Outline: as §3
# Italian ryegrass [7] = experiment: Test Example 5: herbicidal effect by foliage application, plastic box (Table 20, symbol K); format: in vivo, Italian ryegrass (Lolium multiflorum); settings: foliage application, 320 g/ha, evaluated three weeks after application
# Outline: as §1
# chickweed [8] = experiment: Test Example 4: herbicidal effect by soil treatment (Table 19, symbol P); format: in vivo, common chickweed (Stellaria media); settings: amount of applied herbicide 320 g/ha
# Outline: as §3
# windgrass [9] = experiment: Test Example 5: herbicidal effect by foliage application, plastic box (Table 20, symbol L); format: in vivo, windgrass (Apera spica-venti); settings: foliage application, 320 g/ha, evaluated three weeks after application
# Outline: as §1
# oval-leafed pondweed = experiment: Test Example 1: herbicidal activity, application before weed generation under submerged conditions (Table 16, symbol C); format: in vivo, oval-leafed pondweed (Monochoria vaginalis); settings: 320 g/ha applied herbicide
# Outline: as §2
# lambsquarters [10] = experiment: Test Example 5: herbicidal effect by foliage application, plastic box (Table 20, symbol O); format: in vivo, lambsquarters (Chenopodium album); settings: foliage application, 320 g/ha, evaluated three weeks after application
# Outline: as §1
# rice flat sedge = experiment: Test Example 3: herbicidal effect by foliage application, Wagner pot (Table 18, symbol E); format: in vivo, rice flat sedge (Cyperus iria); settings: amount of applied herbicide 320 g/ha
# Outline: (§4)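 Plants were sown in alluvial soil held under 0.1–0.5 cm standing water and grown 14 days in a greenhouse at 25–30 °C. An emulsifiable formulation, water-diluted to the set dose, was then sprayed onto the foliage, and effects were scored three weeks later using previously defined criteria.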
# redroot pigweed [11] = experiment: Test Example 4: herbicidal effect by soil treatment (Table 19, symbol N); format: in vivo, redroot pigweed (Amaranthus retroflexus); settings: amount of applied herbicide 320 g/ha
# Outline: as §3
# windgrass [12] = experiment: Test Example 4: herbicidal effect by soil treatment (Table 19, symbol L); format: in vivo, windgrass (Apera spica-venti); settings: amount of applied herbicide 320 g/ha
# Outline: as §3
# persian speedwell [13] = experiment: Test Example 5: herbicidal effect by foliage application, plastic box (Table 20, symbol R); format: in vivo, Persian speedwell (Veronica persica); settings: foliage application, 320 g/ha, evaluated three weeks after application
# Outline: as §1
# persian speedwell [14] = experiment: Test Example 4: herbicidal effect by soil treatment (Table 19, symbol R); format: in vivo, Persian speedwell (Veronica persica); settings: amount of applied herbicide 320 g/ha
# Outline: as §3
# southern crabgrass [15] = experiment: Test Example 4: herbicidal effect by soil treatment (Table 19, symbol F); format: in vivo, southern crabgrass (Digitaria ciliaris); settings: amount of applied herbicide 320 g/ha
# Outline: as §3
# lambsquarters [16] = experiment: Test Example 4: herbicidal effect by soil treatment (Table 19, symbol O); format: in vivo, lambsquarters (Chenopodium album); settings: amount of applied herbicide 320 g/ha
# Outline: as §3
# green foxtail [17] = experiment: Test Example 4: herbicidal effect by soil treatment (Table 19, symbol G); format: in vivo, green foxtail (Setaria viridis); settings: amount of applied herbicide 320 g/ha
# Outline: as §3
# blackgrass [18] = experiment: Test Example 5: herbicidal effect by foliage application, plastic box (Table 20, symbol J); format: in vivo, blackgrass (Alopecurus myosuroides); settings: foliage application, 320 g/ha, evaluated three weeks after application
# Outline: as §1
# velvetleaf [19] = experiment: Test Example 5: herbicidal effect by foliage application, plastic box (Table 20, symbol M); format: in vivo, velvetleaf (Abutilon theophrasti); settings: foliage application, 320 g/ha, evaluated three weeks after application
# Outline: as §1
# barnyard grass [20] = experiment: Test Example 3: herbicidal effect by foliage application, Wagner pot (Table 18, symbol H); format: in vivo, barnyard grass (Echinochloa crus-galli); settings: amount of applied herbicide 320 g/ha
# Outline: as §4
# southern crabgrass [21] = experiment: Test Example 5: herbicidal effect by foliage application, plastic box (Table 20, symbol F); format: in vivo, southern crabgrass (Digitaria ciliaris); settings: foliage application, 320 g/ha, evaluated three weeks after application
# Outline: as §1
# barnyard grass [22] = experiment: Test Example 5: herbicidal effect by foliage application, plastic box (Table 20, symbol H); format: in vivo, barnyard grass (Echinochloa crus-galli); settings: foliage application, 320 g/ha, evaluated three weeks after application
# Outline: as §1
# wild oat [23] = experiment: Test Example 5: herbicidal effect by foliage application, plastic box (Table 20, symbol I); format: in vivo, wild oat (Avena fatua); settings: foliage application, 320 g/ha, evaluated three weeks after application
# Outline: as §1
# blackgrass [24] = experiment: Test Example 4: herbicidal effect by soil treatment (Table 19, symbol J); format: in vivo, blackgrass (Alopecurus myosuroides); settings: amount of applied herbicide 320 g/ha
# Outline: as §3
# green foxtail [25] = experiment: Test Example 5: herbicidal effect by foliage application, plastic box (Table 20, symbol G); format: in vivo, green foxtail (Setaria viridis); settings: foliage application, 320 g/ha, evaluated three weeks after application
# Outline: as §1
# barnyard grass [26] = experiment: Test Example 4: herbicidal effect by soil treatment (Table 19, symbol H); format: in vivo, barnyard grass (Echinochloa crus-galli); settings: amount of applied herbicide 320 g/ha
# Outline: as §3
# redroot pigweed [27] = experiment: Test Example 5: herbicidal effect by foliage application, plastic box (Table 20, symbol N); format: in vivo, redroot pigweed (Amaranthus retroflexus); settings: foliage application, 320 g/ha, evaluated three weeks after application
# Outline: as §1
# Chinese sprangletop = experiment: Test Example 3: herbicidal effect by foliage application, Wagner pot (Table 18, symbol D); format: in vivo, chinese sprangletop (Leptochloa chinensis); settings: amount of applied herbicide 320 g/ha
# Outline: as §4
compound,measurement,setting,value
COc1ccc2sc(-c3ccccc3)c(-c3c(O)c(C)nn(C)c3=O)c2c1 [2-164],herbicidal effect on P: chickweed (criteria 0-5),chickweed [1],5 (Herbicidal rate of 90% or more (almost completely withered))
same,Herbicidal effect on A: late watergrass (grade 0-5),late watergrass,3 (Herbicidal rate of 40% or more and less than 70%)
same,"K: Italian ryegrass, herbicidal effect rating",Italian ryegrass [2],2 (Herbicidal rate of 20% or more and less than 40%)
same,herbicidal effect on Q: false cleavers (criteria 0-5),false cleavers [3],5 (Herbicidal rate of 90% or more (almost completely withered))
same,"I: wild oat, herbicidal effect rating",wild oat [4],1 (Herbicidal rate of 5% or more and less than 20%)
same,Herbicidal effect on B: Japanese bulrush (grade 0-5),Japanese bulrush,0 (Herbicidal rate of 5% or less (almost no effect))
same,"Q: false cleavers, herbicidal effect rating",false cleavers [5],2 (Herbicidal rate of 20% or more and less than 40%)
same,"M: velvetleaf, herbicidal effect rating",velvetleaf [6],0 (Herbicidal rate of 5% or less (almost no effect))
same,herbicidal effect on K: Italian ryegrass (criteria 0-5),Italian ryegrass [7],4 (Herbicidal rate of 70% or more and less than 90%)
same,"P: chickweed, herbicidal effect rating",chickweed [8],5 (Herbicidal rate of 90% or more (almost completely withered))
same,herbicidal effect on L: windgrass (criteria 0-5),windgrass [9],5 (Herbicidal rate of 90% or more (almost completely withered))
same,Herbicidal effect on C: oval-leafed pondweed (grade 0-5),oval-leafed pondweed,0 (Herbicidal rate of 5% or less (almost no effect))
same,herbicidal effect on O: lambsquarters (criteria 0-5),lambsquarters [10],3 (Herbicidal rate of 40% or more and less than 70%)
same,herbicidal effect on E: rice flat sedge,rice flat sedge,4 (Herbicidal rate of 70% or more and less than 90%)
same,"N: redroot pigweed, herbicidal effect rating",redroot pigweed [11],4 (Herbicidal rate of 70% or more and less than 90%)
same,"L: windgrass, herbicidal effect rating",windgrass [12],3 (Herbicidal rate of 40% or more and less than 70%)
same,herbicidal effect on R: persian speedwell (criteria 0-5),persian speedwell [13],5 (Herbicidal rate of 90% or more (almost completely withered))
same,"R: persian speedwell, herbicidal effect rating",persian speedwell [14],4 (Herbicidal rate of 70% or more and less than 90%)
same,"F: southern crabgrass, herbicidal effect rating",southern crabgrass [15],4 (Herbicidal rate of 70% or more and less than 90%)
same,"O: lambsquarters, herbicidal effect rating",lambsquarters [16],4 (Herbicidal rate of 70% or more and less than 90%)
same,"G: green foxtail, herbicidal effect rating",green foxtail [17],5 (Herbicidal rate of 90% or more (almost completely withered))
same,herbicidal effect on J: blackgrass (criteria 0-5),blackgrass [18],3 (Herbicidal rate of 40% or more and less than 70%)
same,herbicidal effect on M: velvetleaf (criteria 0-5),velvetleaf [19],3 (Herbicidal rate of 40% or more and less than 70%)
same,herbicidal effect on H: barnyard grass,barnyard grass [20],2 (Herbicidal rate of 20% or more and less than 40%)
same,herbicidal effect on F: southern crabgrass (criteria 0-5),southern crabgrass [21],4 (Herbicidal rate of 70% or more and less than 90%)
same,herbicidal effect on H: barnyard grass (criteria 0-5),barnyard grass [22],1 (Herbicidal rate of 5% or more and less than 20%)
same,herbicidal effect on I: wild oat (criteria 0-5),wild oat [23],4 (Herbicidal rate of 70% or more and less than 90%)
same,"J: blackgrass, herbicidal effect rating",blackgrass [24],0 (Herbicidal rate of 5% or less (almost no effect))
same,herbicidal effect on G: green foxtail (criteria 0-5),green foxtail [25],5 (Herbicidal rate of 90% or more (almost completely withered))
same,"H: barnyard grass, herbicidal effect rating",barnyard grass [26],2 (Herbicidal rate of 20% or more and less than 40%)
same,herbicidal effect on N: redroot pigweed (criteria 0-5),redroot pigweed [27],5 (Herbicidal rate of 90% or more (almost completely withered))
same,herbicidal effect on D: Chinese sprangletop,Chinese sprangletop,3 (Herbicidal rate of 40% or more and less than 70%)
